The source made the active and inactive calls. The calls are words filed in the database; no cut-off is given here. Non-standard residues stand in square brackets, D forms with d. Residues, ends and D or L forms follow the SMILES beside them. Orn = NCCC[C@H](N)C(=O)O
Tests used:
[1] = test system: Staphylococcus epidermidis; assay: Antimicrobial activity against Staphylococcus epidermidis assessed as reduction in microbial growth incubated for 18 hrs by broth microdilution method; type: functional
Staphylococcus aureus [2] = assay: Antimicrobial activity against Staphylococcus aureus CMCC 26003 assessed as fold increase in MIC incubated for 18 hrs in presence of CCCP; type: functional
Escherichia coli [3] = assay: Antibacterial activity against Escherichia coli ATCC 25922 at 1 times MIC in presence of exogenous DNA; type: functional, organism-based
Staphylococcus aureus [4] = assay: Antipersister-activity against Staphylococcus aureus CMCC 26003 assessed as elimination of persister cells at 50 times MIC preincubated adherent persistent cells with colistin incubation for 24 hrs; type: functional
[5] = Hemolytic activity at human Erythrocyte assessed as hemolysis at 100 microg/ml; type: toxicity, cell-based; settings: erythrocytes, at 100 µg/mL, read-out: Activity
Acinetobacter baumannii [6] = assay: Antipersister-activity against Acinetobacter baumannii ATCC 19606 assessed as elimination of persister cells at 50 times MIC preincubated adherent persistent cells with colistin incubation for 24 hrs; type: functional
Acinetobacter baumannii [7] = assay: In vivo antibacterial activity against Acinetobacter baumannii ATCC19606 infected in BALB/c mouse assessed as reduction in bacterial load in kidney at 15 mg/kg, ip measured after 3 hrs; type: functional, organism-based
Acinetobacter baumannii [8] = assay: Antibiofilm activity against Acinetobacter baumannii ATCC 19606 assessed as inhibition of biofilm formation at 0.5 times MIC incubated for 48 hrs by crystal violet staining based analysis; type: functional
[9] = Acute toxicity in BALB/c mouse assessed as mortality at 20 mg/kg, iv measured for 24 hrs; type: organism-based; settings: in vivo, read-out: Activity
Staphylococcus aureus [10] = assay: Bactericidal activity against Staphylococcus aureus CMCC 26003 assessed as bacterial eradication incubated at 0.5 hrs in presence of thiourea; type: functional, organism-based
Acinetobacter baumannii [11] = assay: In vivo antibacterial activity against Acinetobacter baumannii ATCC19606 infected in BALB/c mouse assessed as reduction in bacterial load in lung at 15 mg/kg, ip measured after 3 hrs; type: functional, organism-based
Staphylococcus aureus [12] = assay: Antimicrobial activity against Staphylococcus aureus ATCC 43300 assessed as reduction in microbial growth incubated for 18 hrs by broth microdilution method; type: functional
Acinetobacter baumannii [13] = assay: In vivo antibacterial activity against Acinetobacter baumannii ATCC19606 infected in BALB/c mouse assessed as reduction in bacterial load at 15 mg/kg, ip; type: functional, organism-based; settings: time 3.0 hrs
Escherichia coli [14] = assay: Antimicrobial activity against Escherichia coli ATCC 25922 assessed as reduction in microbial growth incubated for 18 hrs by broth microdilution method; type: functional
Escherichia coli [15] = assay: Antimicrobial activity against Escherichia coli CMCC44102 assessed as reduction in microbial growth incubated for 18 hrs by broth microdilution method; type: functional
Clostridium perfringens = assay: Antimicrobial activity against Clostridium perfringens ATCC 13124 assessed as reduction in microbial growth incubated for 18 hrs by broth microdilution method; type: functional
Staphylococcus aureus [16] = assay: Antimicrobial activity against Staphylococcus aureus CMCC 26003 assessed as reduction in microbial growth incubated for 18 hrs by broth microdilution method; type: functional
Cell membrane [17] = assay: Disruption of cell membrane integrity in Escherichia coli ATCC 25922 assessed as cell membrane damage at 5 times MIC measured after 30 mins by scanning electron microscopic analysis; type: subcellular
Staphylococcus aureus [18] = assay: Antimicrobial activity against Staphylococcus aureus CMCC 26003 at 5 times MIC measured at 180 mins; type: functional, organism-based
[19] = Acute toxicity in BALB/c mouse assessed as effect on BUN level at 10 mg/kg, iv measured for 24 hrs; type: organism-based; settings: in vivo
Enterococcus faecalis = assay: Antimicrobial activity against Enterococcus faecalis ATCC 29217 assessed as reduction in microbial growth incubated for 18 hrs by broth microdilution method; type: functional
[20] = Acute toxicity in BALB/c mouse assessed as mortality at 15 mg/kg, iv measured for 24 hrs; type: organism-based; settings: in vivo, read-out: Activity
Staphylococcus aureus [21] = assay: Antibiofilm activity against Staphylococcus aureus CMCC 26003 assessed as biofilm eradication at 0.5 to 2 times MIC incubated for 24 hrs by crystal violet staining based analysis; type: functional
Acinetobacter baumannii [22] = assay: In vivo antibacterial activity against Acinetobacter baumannii ATCC19606 infected in BALB/c mouse assessed as survival at 15 mg/kg, ip administered for 12 hrs and measured on day 7; type: functional; settings: ATCC19606, 168 h, time 7 day
Pseudomonas aeruginosa = assay: Antimicrobial activity against Pseudomonas aeruginosa CMCC10104 assessed as reduction in microbial growth incubated for 18 hrs by broth microdilution method; type: functional
Enterococcus faecium = assay: Antimicrobial activity against Enterococcus faecium 34 assessed as reduction in microbial growth incubated for 18 hrs by broth microdilution method; type: functional
Staphylococcus aureus [23] = assay: Antimicrobial activity against Staphylococcus aureus 08032706 assessed as reduction in microbial growth incubated for 18 hrs by broth microdilution method; type: functional
Peritoneal macrophage [24] = assay: Antiinflammatory activity in mouse Peritoneal macrophage cells assessed as inhibition of LPS-induced IL-6 production at 20 microg/ml incubated for 6 hrs by ELISA analysis; type: functional, cell-based; settings: dose 20.0 µg/ml
Escherichia coli [25] = assay: Antibacterial activity against Escherichia coli ATCC 25922 assessed as increase in intracellular ROS production at 1 times MIC by DCFH-DA staining based assay; type: functional, organism-based
Cell membrane [26] = assay: Disruption of cell membrane integrity in Staphylococcus aureus CMCC 26003 assessed as cell membrane damage at 5 times MIC measured after 30 mins by scanning electron microscopic analysis; type: subcellular
[27] = Acute toxicity in BALB/c mouse assessed as effect on ALT level at 10 mg/kg, iv measured for 24 hrs; type: organism-based; settings: in vivo
[28] = Acute toxicity in BALB/c mouse assessed as mortality at 50 mg/kg, iv measured for 24 hrs; type: organism-based; settings: in vivo, read-out: Activity
Peritoneal macrophage [29] = assay: Antiinflammatory activity in mouse Peritoneal macrophage cells assessed as inhibition of LPS-induced TNF-alpha production at 20 microg/ml incubated for 6 hrs by ELISA analysis; type: functional, cell-based; settings: dose 20.0 µg/ml
Escherichia coli [30] = assay: Antibacterial activity against Escherichia coli ATCC 25922 assessed as increase in intracellular ROS production at 2 to 5 times MIC by DCFH-DA staining based assay; type: functional, organism-based
Acinetobacter baumannii [31] = assay: Antimicrobial activity against Acinetobacter baumannii ATCC19606 assessed as reduction in microbial growth incubated for 18 hrs by broth microdilution method; type: functional
Acinetobacter baumannii [32] = assay: Antibiofilm activity against Acinetobacter baumannii ATCC 19606 assessed as biofilm eradication incubated for 24 hrs by crystal violet staining based analysis; type: functional, organism-based
Acinetobacter baumannii [33] = assay: In vivo antibacterial activity against Acinetobacter baumannii ATCC19606 infected in BALB/c mouse assessed as reduction in bacterial load in kidney at 15 mg/kg, ip measured after 12 hrs; type: functional, organism-based
Staphylococcus aureus [34] = assay: Antibiofilm activity against Staphylococcus aureus CMCC 26003 assessed as inhibition of biofilm formation incubated for 48 hrs by crystal violet staining based analysis; type: functional, organism-based
Acinetobacter baumannii [35] = assay: In vivo antibacterial activity against Acinetobacter baumannii ATCC19606 infected in BALB/c mouse assessed as reduction in bacterial load in liver at 15 mg/kg, ip measured after 3 hrs; type: functional, organism-based
Acinetobacter baumannii [36] = assay: In vivo antibacterial activity against Acinetobacter baumannii ATCC19606 infected in BALB/c mouse assessed as reduction in bacterial load in lung at 15 mg/kg, ip measured after 12 hrs; type: functional, organism-based

CC[C@H](C)[C@H](NC(=O)[C@H](CCCN)NC(=O)[C@H](CO)NC(=O)[C@H](Cc1c[nH]cn1)NC(=O)[C@H](CCCN)NC(=O)[C@H](CC(C)C)NC(=O)[C@@H](NC(=O)[C@H](CCCN)NC(=O)CNC(=O)[C@H](CC(C)C)NC(=O)[C@H](CCC(N)=O)NC(=O)[C@H](CCCN)NC(=O)[C@H](CCCN)NC(=O)[C@@H](NC(=O)[C@H](CCCN)NC(=O)[C@H](CCCN)NC(=O)[C@@H](N)Cc1ccccc1)C(C)C)C(C)C)C(=O)N[C@H](C(=O)N[C@H](C(=O)NCC(=O)NCC(=O)N[C@@H](CCCN)C(=O)N[C@@H](CCSC)C(=O)N[C@@H](CCCN)C(=O)N[C@@H](Cc1ccccc1)C(=O)O)C(C)C)[C@@H](C)O (H-F[Orn][Orn]V[Orn][Orn]QLG[Orn]VL[Orn]HS[Orn]ITVGG[Orn]M[Orn]F-OH)
MIC [1]: 18.8 µg/mL
fold change (FC) (Staphylococcus aureus [2]): 32
Activity (Escherichia coli [3]): Active
Activity (Staphylococcus aureus [4]): 50%
hemolysis at 100 microg/ml [5]: < 5%
Activity (Acinetobacter baumannii [6]): 60%
Activity (Acinetobacter baumannii [7]): Active
inhibition (INH) (Acinetobacter baumannii [8]): 10%
mortality at 24 h [9]: 0%
Activity (Staphylococcus aureus [10]): Active
Activity (Acinetobacter baumannii [11]): Active
MIC (Staphylococcus aureus [12]): > 100 µg/mL
Activity (Acinetobacter baumannii [13]): Time-dependent-effect
MIC (Escherichia coli [14]): 9.38 µg/mL
MIC (Escherichia coli [15]): 18.8 µg/mL
MIC (Clostridium perfringens): 18.8 µg/mL
MIC (Staphylococcus aureus [16]): 75 µg/mL
Activity (Cell membrane [17]): Active
Activity (Staphylococcus aureus [18]): inactive
Activity [19]: Non-toxic
MIC (Enterococcus faecalis): 18.8 µg/mL
mortality at 24 h [20]: 0%
Activity (Staphylococcus aureus [21]): 20%
survival at 15 mg/kg (Acinetobacter baumannii [22]): 40%
MIC (Pseudomonas aeruginosa): 75 µg/mL
MIC (Enterococcus faecium): 9.38 µg/mL
MIC (Staphylococcus aureus [23]): 37.5 µg/mL
Activity (Peritoneal macrophage [24]): Active
Activity (Escherichia coli [25]): Active
Activity (Cell membrane [26]): Active
Activity [27]: Non-toxic
mortality at 24 h [28]: 0%
Activity (Peritoneal macrophage [29]): Active
Activity (Escherichia coli [30]): Active
MIC (Acinetobacter baumannii [31]): 9.38 µg/mL
Activity (Acinetobacter baumannii [32]): Active
Activity (Acinetobacter baumannii [33]): Active
Activity (Staphylococcus aureus [34]): Active
Activity (Acinetobacter baumannii [35]): Active
Activity (Acinetobacter baumannii [36]): Active
